Measurements taken from ChEMBL document CHEMBL1150065, “Isolation of picropolygamain from the resin of Bursera simaruba” (J Nat Prod, 1992).

Columns and labels:
A549 = assay: Cytotoxicity against human A549 cells; format: functional
HT-29 = assay: Cytotoxicity against human HT-29 cells; format: functional
MCF7 = assay: Cytotoxicity against human MCF7 cells; format: functional
Artemia = assay: Toxicity in brine shrimp; format: organism-based

SMILES | ED50 (A549) | ED50 (HT-29) | ED50 (MCF7) | EC50 (A549; Homo sapiens, A549, read-out: ED50 (the source's name)) | EC50 (HT-29; Homo sapiens, HT-29, read-out: ED50 (the source's name)) | IC50 (Artemia) | EC50 (MCF7; Homo sapiens, MCF7, read-out: ED50 (the source's name))
COc1cccc2c1C(=O)c1c(O)c3c(c(O)c1C2=O)C[C@@](O)(C(=O)CO)C[C@@H]3O[C@H]1C[C@H](N)[C@H](O)[C@H](C)O1 [DOXORUBICIN] | 4.09 ×10⁻⁴ ug/ml | 1.12 ×10⁻⁴ ug/ml | 1.05 ×10⁻⁴ ug/ml |  |  |  | 
O=C1OC[C@@H]2Cc3cc4c(cc3[C@@H](c3ccc5c(c3)OCO5)[C@H]12)OCO4 [PICROPOLYGAMAIN] |  |  |  | < 0.01 µg/mL | < 0.01 µg/mL | 52.2 ppm | < 0.01 µg/mL
